Consider 14 compounds from ChEMBL document CHEMBL4219024, “A "Click Chemistry Platform" for the Rapid Synthesis of Bispecific Molecules for Inducing Protein Degradation” (J Med Chem, 2018).

Values after ≈ are worked out from the molar mass of the structure shown. Active and inactive are the calls of the source. The calls are words filed in the database; no cut-off is given here. Where only a bound is given, the exact number is not on record here.

The nature of data set [1]: physchem. Conditions: fasted state simulated intestinal fluid.
In data set [2] the target is T1, von Hippel-Lindau disease tumor suppressor/Bromodomain-containing protein 4 (Homo sapiens) (UniProt O60885+P40337). In words: Induction of human His-tagged VHL(1 to 154)/GST-tagged BRD4 (49 to 170 residues) interaction assessed as VHL/BRD4/compound complex formation preincubated for 60 mins and measured after 60 mins by luminescence based Alphascreen proximity assay relative to control. Type of data set: protein assay. In general terms: In Alpha technology, singlet oxygen from a donor bead excites a nearby acceptor bead.

A short description of data set [3]: Solubility of the compound in 0.01 N HCl.
Data set [4] concerns the target T2, Protein cereblon/Bromodomain-containing protein 4/DNA damage-binding protein 1 (Homo sapiens, UniProt O60885+Q96SW2+Q16531). Kind of data set: Induction of CRBN/DDB1-mediated BRD4 protein degradation in human NCI-H661 cells assessed as drug level causing 50% cellular protein depletion incubated for 4 hrs by MSD assay.
The nature of data set [5]: Solubility of the compound in PBS.
The target in data set [6] is T2, Protein cereblon/Bromodomain-containing protein 4/DNA damage-binding protein 1. In words: Proteolysis targeting chimera activity in human NCI-H661 cells assessed as induction of CRBN/DDB1-mediated delivery of BRD4 for protein degradation at 1 uM after 4 hrs by Meso Scale Diagnostics assay. Type of data set: cell-based.
Data set [7] shares this target. Kind of data set: Proteolysis targeting chimera activity in human NCI-H661 cells assessed as induction of CRBN/DDB1-mediated delivery of BRD4 for protein degradation by proteasome at 1 uM after 4 hrs in presence of 20 uM MG132 by Meso Scale Diagnostics assay. Format: cell-based.
For data set [8] the target is unchanged. Kind of data set: Proteolysis targeting chimera activity in human NCI-H661 cells assessed as induction of CRBN/DDB1-mediated delivery of BRD4 for protein degradation by proteasome at 1 uM after 4 hrs in presence of 10 uM thalidomide by Meso Scale Diagnostics assay. Format: cell-based.
For data set [9] the target is unchanged. In words: Proteolysis targeting chimera activity in human NCI-H661 cells assessed as induction of CRBN/DDB1-mediated delivery of BRD4 for protein degradation by proteasome at 1 uM after 4 hrs in presence of 10 uM of JQ-1 by Meso Scale Diagnostics assay. Type of data set: cell-based.
For data set [10] the target is unchanged. Kind of data set: Proteolysis targeting chimera activity in human NCI-H661 cells assessed as induction of CRBN/DDB1-mediated delivery of BRD4 for protein degradation by proteasome at 10 uM after 4 hrs by Meso Scale Diagnostics assay. Type of data set: cell-based.
For data set [11], the target named is T1, von Hippel-Lindau disease tumor suppressor/Bromodomain-containing protein 4 (Homo sapiens). Kind of data set: Proteolysis targeting chimera activity in human NCI-H661 cells assessed as induction of VHL-mediated delivery of BRD4 for protein degradation by proteasome after 4 hrs in presence of 2-(prop-2-ynyloxy)ethanol by Meso Scale Diagnostics assay. Type of data set: cell-based.

T1 sequence (P40337 whole entry, looked up, other chains not shown, the tested form may be a part): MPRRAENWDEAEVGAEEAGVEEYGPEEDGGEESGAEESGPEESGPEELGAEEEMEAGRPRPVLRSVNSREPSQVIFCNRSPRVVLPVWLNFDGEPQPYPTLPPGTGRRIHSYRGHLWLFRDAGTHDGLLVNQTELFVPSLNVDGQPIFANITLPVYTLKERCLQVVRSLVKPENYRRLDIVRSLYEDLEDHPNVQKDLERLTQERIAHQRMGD

As usually defined, the solubility is how much of the substance goes into solution per volume. In general, DC50 refers to the concentration at which degradation of the target reaches its halfway point. As for `Cc1ncsc1-c1ccc(CNC(=O)[C@@H]2C[C@@H](O)CN2C(=O)[C@@H](NC(=O)COCCOCCOCCOCCOCc2cn(CCNC(=O)C[C@@H]3N=C(c4ccc(Cl)cc4)c4c(sc(C)c4C)-n4c(C)nnc43)nn2)C(C)(C)C)cc1`, the solubility in data set [1] was 313 µM (≈ 367 µg/mL); in [3] (0.01 N HCl), 500 µM (≈ 586 µg/mL); in data set [5], 206 µM (≈ 241 µg/mL). Moreover, the %max in data set [2] was determined as 3%. The DC50 in [4] stood at 630 nM.
On to `Cc1sc2c(c1C)C(c1ccc(Cl)cc1)=N[C@@H](CC(=O)NCCn1cc(COCCOc3cccc4c3C(=O)N(C3CCC(=O)NC3=O)C4=O)nn1)c1nnc(C)n1-2` (stereo partly specified), for which the solubility in [1] was 247 µM (≈ 204 µg/mL); in data set [3] (0.01 N HCl) it was 242 µM (≈ 200 µg/mL); in data set [5] it was 111 µM (≈ 91.6 µg/mL). Besides, the 50% degradation concentration (DC50) in data set [4] is > 5000 nM.
Regarding `Cc1sc2c(c1C)C(c1ccc(Cl)cc1)=N[C@@H](CC(=O)NCCn1cc(COc3cccc4c3C(=O)N(C3CCC(=O)NC3=O)C4=O)nn1)c1nnc(C)n1-2` (stereo partly specified), the solubility was 191 µM (≈ 149 µg/mL) in [1], 171 µM (≈ 134 µg/mL) in [3] (0.01 N HCl) and 31 µM (≈ 24.2 µg/mL) in [5].
Regarding `Cc1sc2c(c1C)C(c1ccc(Cl)cc1)=N[C@@H](CC(=O)NCCn1cc(COCCOCCOCCOCCOc3cccc4c3C(=O)N(C3CCC(=O)NC3=O)C4=O)nn1)c1nnc(C)n1-2` (stereo partly specified), the solubility in data set [1] is 273 µM (≈ 261 µg/mL); in data set [3] (0.01 N HCl) it was 317 µM (≈ 304 µg/mL); in data set [5], 158 µM (≈ 151 µg/mL). For the same compound, the Activity in [6] was > 90%. For the same compound, the outcome in data set [7], in [8] and in data set [9] was inactive. Moreover, in data set [4], the DC50 stood at 200 nM.
Regarding `Cc1sc2c(c1C)C(c1ccc(Cl)cc1)=N[C@@H](CC(=O)NCCn1cc(COCCOCCOCCOc3cccc4c3C(=O)N(C3CCC(=O)NC3=O)C4=O)nn1)c1nnc(C)n1-2` (stereo partly specified), the solubility in [1] was 216 µM (≈ 197 µg/mL); in [3] (0.01 N HCl) it was 310 µM (≈ 283 µg/mL); in [5], 130 µM (≈ 119 µg/mL).
`Cc1sc2c(c1C)C(c1ccc(Cl)cc1)=N[C@@H](CC(=O)NCCCCNC(=O)COc1cccc3c1C(=O)N(C1CCC(=O)NC1=O)C3=O)c1nnc(C)n1-2` (stereo partly specified): the solubility in data set [1] was 97 µM (≈ 76.2 µg/mL); in [3] (0.01 N HCl), 171 µM (≈ 134 µg/mL); in data set [5] it was 60 µM (≈ 47.1 µg/mL).
As to `Cc1sc2c(c1C)C(c1ccc(Cl)cc1)=N[C@@H](CC(=O)NCCN=[N+]=[N-])c1nnc(C)n1-2`, the result in [10] was inactive.
As for `Cc1sc2c(c1C)C(c1ccc(Cl)cc1)=N[C@@H](CC(=O)NCCn1cc(COCCOCCOc3cccc4c3C(=O)N(C3CCC(=O)NC3=O)C4=O)nn1)c1nnc(C)n1-2` (stereo partly specified), the solubility in [1] was 237 µM (≈ 206 µg/mL); in [3] (0.01 N HCl), 237 µM (≈ 206 µg/mL); in data set [5], 76 µM (≈ 66.1 µg/mL). Also, in data set [4], the DC50 was > 5000 nM.
As for `Cc1ncsc1-c1ccc(CNC(=O)[C@@H]2C[C@@H](O)CN2C(=O)[C@@H](NC(=O)COCCOCCOCCNC(=O)C[C@@H]2N=C(c3ccc(Cl)cc3)c3c(sc(C)c3C)-n3c(C)nnc32)C(C)(C)C)cc1`, the solubility in data set [1] is 164 µM (≈ 164 µg/mL); in [3] (buffer) it was 450 µM (≈ 451 µg/mL); in data set [5], 97 µM (≈ 97.3 µg/mL). Also, the %max in data set [2] worked out at 100%.
As to `Cc1ncsc1-c1ccc(CNC(=O)[C@@H]2C[C@@H](O)CN2C(=O)[C@@H](NC(=O)COCCOCCOCCOCc2cn(CCNC(=O)C[C@@H]3N=C(c4ccc(Cl)cc4)c4c(sc(C)c4C)-n4c(C)nnc43)nn2)C(C)(C)C)cc1`, the solubility in [1] is 294 µM (≈ 332 µg/mL); in [3] (0.01 N HCl) it was 394 µM (≈ 444 µg/mL); in [5], 168 µM (≈ 189 µg/mL). The %max in data set [2] is 15%. Besides, the DC50 in [4] turned out to be 460 nM.
As for `Cc1ncsc1-c1ccc(CNC(=O)[C@H]2CN(C(=O)[C@@H](NC(=O)COCc3cn(CCNC(=O)C[C@@H]4N=C(c5ccc(Cl)cc5)c5c(sc(C)c5C)-n5c(C)nnc54)nn3)C(C)(C)C)C[C@@H]2O)cc1`, the solubility in data set [1] is 90 µM (≈ 89.6 µg/mL); in data set [3] (0.01 N HCl), 314 µM (≈ 313 µg/mL). For the same compound, in data set [2], the %max amounted to 46%. In addition, the DC50 in [4] is 59 nM.
Turning to `C#CCOCCOCCOCCOCCOc1cccc2c1C(=O)N(C1CCC(=O)NC1=O)C2=O` (stereo unspecified), the outcome in data set [10] was inactive.
For `Cc1ncsc1-c1ccc(CNC(=O)[C@@H]2C[C@@H](O)CN2C(=O)[C@@H](NC(=O)COCCOCc2cn(CCNC(=O)C[C@@H]3N=C(c4ccc(Cl)cc4)c4c(sc(C)c4C)-n4c(C)nnc43)nn2)C(C)(C)C)cc1`, the solubility in data set [1] is 178 µM (≈ 185 µg/mL); in data set [3] (0.01 N HCl) it was 343 µM (≈ 357 µg/mL); in data set [5], 38 µM (≈ 39.5 µg/mL). Also, the outcome in data set [11] was inactive. Besides, in [2], the %max turned out to be 22%. The DC50 in data set [4] was 83 nM.
As for `Cc1ncsc1-c1ccc(CNC(=O)[C@@H]2C[C@@H](O)CN2C(=O)[C@@H](NC(=O)COCCOCCOCc2cn(CCNC(=O)C[C@@H]3N=C(c4ccc(Cl)cc4)c4c(sc(C)c4C)-n4c(C)nnc43)nn2)C(C)(C)C)cc1`, the figures for the solubility in data set [1], in data set [3] (0.01 N HCl) and in data set [5] were 183 µM (≈ 198 µg/mL), 293 µM (≈ 318 µg/mL) and 71 µM (≈ 76.9 µg/mL), respectively. Moreover, the %max in [2] is 11%. In addition, the DC50 in [4] stood at 240 nM.
